Target: HIV-1 PR (Human immunodeficiency virus type 1 group M subtype B, UniProt P04585)
Experiment: HIV-protease inhibitory activity assay (FRET peptide substrate)
Type: biochemical
Details: Test Example 1
Procedure, shortened: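 Compounds were preincubated with HIV-1 PR (0.83 ng) at room temperature in pH 4.8 NaAc buffer (0.5 M NaCl, EDTA, DTT, Tween 20), then HiLyte Fluor 488/QXL 520 FRET peptide (2 μmol/L final) was added for 60 min. Fluorescence was read at 485/535 nm, and IC50 was fitted by four-parameter logistic regression.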

In order of falling IC50:
1. COc1ccc(S(=O)(=O)N(CC(C)C)CC(O)C(Cc2ccc(N3CC(Oc4cc5ccccc5cc4C(=O)Nc4sc5c(c4C(=O)O)CC(C)(C)CC5)C3)cc2)NC(=O)OC2COC3(C)OCCC23)cc1 (stereo not shown) [Compound I-671]  34.8 nM
2. COc1ccc(S(=O)(=O)N(CC(C)C)CC(O)C(Cc2ccc(N(C)Cc3cc(-c4ccc5ccccc5c4)ccc3-c3sc4c(c3C(=O)O)CC(C)(C)CC4)cc2)NC(=O)OC2COC3(C)OCCC23)cc1 (stereo not shown) [Compound I-692]  26.1 nM
3. COc1ccc(S(=O)(=O)N(CC(C)C)CC(O)C(Cc2ccc(N(C)Cc3cc(Cl)ccc3C(=O)Nc3sc4c(c3C(=O)O)CC(C)(C)CC4)cc2)NC(=O)OC2COC3(C)OCCC23)cc1 (stereo not shown) [Compound I-658]  13.7 nM
4. COc1ccc(S(=O)(=O)N(CC(C)C)CC(O)C(Cc2ccc(NCc3cccc4c(-c5sc6c(c5C(=O)O)CC(C)(C)CC6)cccc34)cc2)NC(=O)OC2COC3(C)OCCC23)cc1 (stereo not shown) [Compound I-675]  13.4 nM
5. COc1ccc(S(=O)(=O)N(CC(C)C)CC(O)C(Cc2ccc(N(C)Cc3ccc(Oc4ccccc4)cc3-c3sc4c(c3C(=O)O)CC(C)(C)CC4)cc2)NC(=O)OC2COC3(C)OCCC23)cc1 (stereo not shown) [Compound I-696]  12.2 nM
6. COc1ccc(S(=O)(=O)N(CC(C)C)CC(O)C(Cc2ccc(N(C)Cc3cc(OC(F)(F)F)ccc3-c3sc4c(c3C(=O)O)CC(C)(C)CC4)cc2)NC(=O)OC2COC3(C)OCCC23)cc1 (stereo not shown) [Compound I-699]  10.3 nM
7. COc1ccc(S(=O)(=O)N(CC(C)C)CC(O)C(Cc2ccc(N(C)Cc3ccc(Cl)cc3C(=O)Nc3sc4c(c3C(=O)O)CC(C)(C)CC4)cc2)NC(=O)OC2COC3(C)OCCC23)cc1 (stereo not shown) [Compound I-659]  9.51 nM
8. COc1ccc(S(=O)(=O)N(CC(C)C)CC(O)C(Cc2ccc(NCc3cc(Oc4ccccc4)ccc3-c3sc4c(c3C(=O)O)CC(C)(C)CC4)cc2)NC(=O)OC2COC3(C)OCCC23)cc1 (stereo not shown) [Compound I-654]  8.75 nM
9. CCN(Cc1ccccc1C(=O)Nc1sc2c(c1C(=O)O)CC(C)(C)CC2)c1ccc(CC(NC(=O)OC2COC3(C)OCCC23)C(O)CN(CC(C)C)S(=O)(=O)c2ccc(OC)cc2)cc1 (stereo not shown) [Compound I-669]  8.54 nM
10. COc1ccc(S(=O)(=O)N(CC(C)C)CC(O)C(Cc2ccc(NCc3ccc(Cl)cc3C(=O)Nc3sc4c(c3C(=O)O)CC(C)(C)CC4)cc2)NC(=O)OC2COC3(C)OCCC23)cc1 (stereo not shown) [Compound I-657]  8.14 nM
11. COc1ccc(S(=O)(=O)N(CC(C)C)CC(O)C(Cc2ccc(NC3CCCc4c(-c5sc6c(c5C(=O)O)CC(C)(C)CC6)cccc43)cc2)NC(=O)OC2COC3(C)OCCC23)cc1 (stereo not shown) [Compound I-711]  8.1 nM
12. CN(Cc1ccccc1C(=O)Nc1sc2c(c1C(=O)O)CC(C)(C)CC2)c1ccc(CC(NC(=O)OC2COC3(C)OCCC23)C(O)CN(CC2CCCC2)S(=O)(=O)c2ccc3c(c2)OCO3)cc1 (stereo not shown) [Compound I-681]  7.97 nM
13. COc1ccc(S(=O)(=O)N(CC(C)C)CC(O)C(Cc2ccc(N3CCC(Cc4ccccc4-c4sc5c(c4C(=O)O)CC(C)(C)CC5)C3)cc2)NC(=O)OC2COC3(C)OCCC23)cc1 (stereo not shown) [Compound I-667]  7.95 nM
14. COc1ccc(S(=O)(=O)N(CC(C)C)CC(O)C(Cc2ccc(NCc3ccc(C(F)(F)F)cc3C(=O)Nc3sc4c(c3C(=O)O)CC(C)(C)CC4)cc2)NC(=O)OC2COC3(C)OCCC23)cc1 (stereo not shown) [Compound I-690]  7.7 nM
15. COc1ccc(S(=O)(=O)N(CC(C)C)CC(O)C(Cc2ccc(N(C)C3CCc4c(-c5sc6c(c5C(=O)O)CC(C)(C)CC6)cccc43)cc2)NC(=O)OC2COC3(C)OCCC23)cc1 (stereo not shown) [Compound I-709]  7.2 nM
16. COc1ccc(S(=O)(=O)N(CC(C)C)CC(O)C(Cc2ccc(N3CCC(Cc4ccccc4-c4sc5c(c4C(=O)O)CC(C)(C)CC5)C3)cc2)NC(=O)OC2COC3(C)OCCC23)cc1 (stereo not shown) [Compound I-668]  7.06 nM
17. COc1ccc(S(=O)(=O)N(CC(C)C)CC(O)C(Cc2ccc(N(C)CC3=C(c4sc5c(c4C(=O)O)CC(C)(C)CC5)CCC(F)(F)C3)cc2)NC(=O)OC2COC3(C)OCCC23)cc1 (stereo not shown) [Compound I-706]  6.62 nM
18. COc1ccc(S(=O)(=O)N(CC(C)C)CC(O)C(Cc2ccc(NCc3cc(Cl)ccc3C(=O)Nc3sc4c(c3C(=O)O)CC(C)(C)CC4)cc2)NC(=O)OC2COC3(C)OCCC23)cc1 (stereo not shown) [Compound I-656]  6.57 nM
19. COc1ccc(S(=O)(=O)N(CC(C)C)CC(O)C(Cc2ccc(NCc3cc(C(F)(F)F)ccc3C(=O)Nc3sc4c(c3C(=O)O)CC(C)(C)CC4)cc2)NC(=O)OC2COC3(C)OCCC23)cc1 (stereo not shown) [Compound I-691]  6.44 nM
20. COc1ccc(S(=O)(=O)N(CC(C)C)CC(O)C(Cc2ccc(N(C)Cc3ccc(OC)cc3C(=O)Nc3sc4c(c3C(=O)O)CC(C)(C)CC4)cc2)NC(=O)OC2COC3(C)OCCC23)cc1 (stereo not shown) [Compound I-683]  5.74 nM
21. COc1ccc(S(=O)(=O)N(CC(C)C)CC(O)C(Cc2ccc(NCc3cc(OC(F)(F)F)ccc3-c3sc4c(c3C(=O)O)CC(C)(C)CC4)cc2)NC(=O)OC2COC3(C)OCCC23)cc1 (stereo not shown) [Compound I-678]  5.48 nM
22. COc1ccc(S(=O)(=O)N(CC(C)C)CC(O)C(Cc2ccc(NCC3=C(c4sc5c(c4C(=O)O)CC(C)(C)CC5)CCC(F)(F)C3)cc2)NC(=O)OC2COC3(C)OCCC23)cc1 (stereo not shown) [Compound I-705]  4.87 nM
23. COc1ccc(S(=O)(=O)N(CC(C)C)CC(O)C(Cc2ccc(N(C)Cc3cc(-c4sc5c(c4C(=O)O)CC(C)(C)CC5)cc4ccccc34)cc2)NC(=O)OC2COC3(C)OCCC23)cc1 (stereo not shown) [Compound I-703]  4.6 nM
24. COc1ccc(S(=O)(=O)N(CC2CCC2)CC(O)C(Cc2ccc(N(C)Cc3ccccc3C(=O)Nc3sc4c(c3C(=O)O)CC(C)(C)CC4)cc2)NC(=O)OC2COC3(C)OCCC23)cc1 (stereo not shown) [Compound I-682]  4.37 nM
25. COc1ccc(S(=O)(=O)N(CC(C)C)CC(O)C(Cc2ccc(NCc3cc(-c4sc5c(c4C(=O)O)CC(C)(C)CC5)cc4ccccc34)cc2)NC(=O)OC2COC3(C)OCCC23)cc1 (stereo not shown) [Compound I-650]  4.31 nM
26. COc1ccc(S(=O)(=O)N(CC(C)C)CC(O)C(Cc2ccc(N(C)C3CCc4c(-c5sc6c(c5C(=O)O)CC(C)(C)CC6)cccc43)cc2)NC(=O)OC2COC3(C)OCCC23)cc1 (stereo not shown) [Compound I-710]  4.26 nM
27. COc1ccc(S(=O)(=O)N(CC(C)C)CC(O)C(Cc2ccc(NCc3ccc(Oc4ccccc4)cc3-c3sc4c(c3C(=O)O)CC(C)(C)CC4)cc2)NC(=O)OC2COC3(C)OCCC23)cc1 (stereo not shown) [Compound I-695]  4.07 nM
28. COc1ccc(S(=O)(=O)N(CC(C)C)CC(O)C(Cc2ccc(N(C)Cc3cc(Oc4ccccn4)ccc3-c3sc4c(c3C(=O)O)CC(C)(C)CC4)cc2)NC(=O)OC2COC3(C)OCCC23)cc1 (stereo not shown) [Compound I-686]  3.6 nM
29. COc1ccc(S(=O)(=O)N(CC(C)C)CC(O)C(Cc2ccc(NCc3cc(Oc4ccccn4)ccc3-c3sc4c(c3C(=O)O)CC(C)(C)CC4)cc2)NC(=O)OC2COC3(C)OCCC23)cc1 (stereo not shown) [Compound I-685]  2.98 nM
30. COc1ccc(S(=O)(=O)N(CC(C)C)CC(O)C(Cc2ccc(NC3CCc4c(-c5sc6c(c5C(=O)O)CC(C)(C)CC6)cccc43)cc2)NC(=O)OC2COC3(C)OCCC23)cc1 (stereo not shown) [Compound I-697]  2.9 nM
31. COc1ccc(S(=O)(=O)N(CC(C)C)CC(O)C(Cc2ccc(NCc3cc(Oc4cccc5cccnc45)ccc3-c3sc4c(c3C(=O)O)CC(C)(C)CC4)cc2)NC(=O)OC2COC3(C)OCCC23)cc1 (stereo not shown) [Compound I-684]  2.83 nM
32. COc1ccc(S(=O)(=O)N(CC(C)C)CC(O)C(Cc2ccc(N(C)CC(=O)Nc3sc4c(c3C(=O)O)CC(C)(C)CC4)cc2)NC(=O)OC2COC3(C)OCCC23)cc1 (stereo not shown) [Compound I-663]  2.8 nM
33. COc1ccc(S(=O)(=O)N(CC(C)C)CC(O)C(Cc2ccc(NCC3CCCC3c3sc4c(c3C(=O)O)CC(C)(C)CC4)cc2)NC(=O)OC2COC3(C)OCCC23)cc1 (stereo not shown) [Compound I-670]  2.67 nM
34. COc1ccc(S(=O)(=O)N(CC(C)C)CC(O)C(Cc2ccc(NCc3cc(Oc4cccnc4)ccc3-c3sc4c(c3C(=O)O)CC(C)(C)CC4)cc2)NC(=O)OC2COC3(C)OCCC23)cc1 (stereo not shown) [Compound I-688]  2.59 nM
35. COc1ccc(S(=O)(=O)N(CC(C)C)CC(O)C(Cc2ccc(NCc3ncccc3C(=O)Nc3sc4c(c3C(=O)O)CC(C)(C)CC4)cc2)NC(=O)OC2COC3(C)OCCC23)cc1 (stereo not shown) [Compound I-687]  2.48 nM
36. COc1ccc(S(=O)(=O)N(CC(C)C)CC(O)C(Cc2ccc(NCc3ccccc3-c3c(C(=O)O)[nH]c4ccc(Cl)cc34)cc2)NC(=O)OC2COC3(C)OCCC23)cc1 (stereo not shown) [Compound I-661]  2.35 nM
37. COc1ccc(S(=O)(=O)N(CC(C)C)CC(O)C(Cc2ccc(NCc3ccc(N4CCCCC4)cc3-c3sc4c(c3C(=O)O)CC(C)(C)CC4)cc2)NC(=O)OC2COC3(C)OCCC23)cc1 (stereo not shown) [Compound I-677]  2.32 nM
38. COc1ccc(S(=O)(=O)N(CC(C)C)CC(O)C(Cc2ccc(N(C)Cc3ncccc3C(=O)Nc3sc4c(c3C(=O)O)CC(C)(C)CC4)cc2)NC(=O)OC2COC3(C)OCCC23)cc1 (stereo not shown) [Compound I-694]  2.27 nM
39. COc1ccc(S(=O)(=O)N(CC(C)C)CC(O)C(Cc2ccc(N(C)Cc3cnc4sccc4c3-c3sc4c(c3C(=O)O)CC(C)(C)CC4)cc2)NC(=O)OC2COC3(C)OCCC23)cc1 (stereo not shown) [Compound I-702]  2.15 nM
40. COc1ccc(S(=O)(=O)N(CC(C)C)CC(O)C(Cc2ccc(NCc3ccccc3-c3c(C(=O)O)[nH]c4ccccc34)cc2)NC(=O)OC2COC3(C)OCCC23)cc1 (stereo not shown) [Compound I-660]  2.12 nM
41. COc1ccc(S(=O)(=O)N(CC(C)C)CC(O)C(Cc2ccc(N3CCC(C(=O)Nc4ccccc4-c4sc5c(c4C(=O)O)CC(C)(C)CC5)C3)cc2)NC(=O)OC2COC3(C)OCCC23)cc1 (stereo not shown) [Compound I-672]  2.05 nM
42. COc1ccc(S(=O)(=O)N(CC(C)C)CC(O)C(Cc2ccc(N(C)Cc3cc(N4CCOCC4)ccc3-c3sc4c(c3C(=O)O)CC(C)(C)CC4)cc2)NC(=O)OC2COC3(C)OCCC23)cc1 (stereo not shown) [Compound I-700]  2.02 nM
43. COc1ccc(S(=O)(=O)N(CC(C)C)CC(O)C(Cc2ccc(N(C)Cc3cc(N4CCC4)ccc3-c3sc4c(c3C(=O)O)CC(C)(C)CC4)cc2)NC(=O)OC2COC3(C)OCCC23)cc1 (stereo not shown) [Compound I-708]  1.65 nM
